Consider 5 compounds from patent US7446199B2, “Compositions useful as inhibitors of protein kinases” (Vertex Pharmaceuticals Incorporated, priority 2003, dated 2008).

What all share (assay type): biochemical
Assay [1] has as its target c-Met (Homo sapiens, UniProt P08581). Kind of assay: Ki determination for the inhibition of c-Met, coupled enzyme system. The settings on record: 200 μM ATP, 10 μM polyGluTyr, 80 nM c-Met, 30° C. As to the method:
Compounds were screened for their ability to inhibit c-Met kinase activity using a standard coupled enzyme system (Fox et al., Protein Sci. 1998, 7, 2249). Reactions were carried out in a solution containing 100 mM HEPES (pH 7.5), 10 mM MgCl2, 25 mM NaCl, 300 μM NADH, 1 mM DTT, and 1.5% DMSO. Final substrate concentrations in the assay were 200 μM ATP (Sigma Chemicals, St Louis, Mo.) and 10 μM polyGluTyr (Sigma Chemical Company, St. Louis). Reactions were carried out at 30° C. and 80 nM c-Met. Final concentrations of the components of the coupled enzyme system were 2.5 mM phosphoenolpyruvate, 300 μM NADH, 30 μg/ml pyruvate kinase and 10 μg/ml lactate dehydrogenase.
An assay stock buffer solution was prepared containing all of the reagents listed above with the exception of ATP and a test compound of the present invention. The assay stock buffer solution (175 μl) was incubated in a 96 well plate with 5 μl of the test compound of the present invention at final concentrations spanning 0.006 μM to 12.5 μM at 30° C. for 10 minutes. Typically, a 12-point titration was conducted by preparing serial dilutions (from 10 mM compound stocks) with DMSO of the test compounds of the present invention in daughter plates. The reaction was initiated by the addition of 20 μl of ATP (final concentration 200 μM). Rates of reaction were obtained using a Molecular Devices Spectramax plate reader (Sunnyvale, Calif.) over 10 minutes at 30° C. The Ki values were determined from the rate data as a function of inhibitor concentration.

Assay [2] has as its target T1, JAK3 (Homo sapiens, UniProt P52333).
T1 sequence (P52333 1-1124): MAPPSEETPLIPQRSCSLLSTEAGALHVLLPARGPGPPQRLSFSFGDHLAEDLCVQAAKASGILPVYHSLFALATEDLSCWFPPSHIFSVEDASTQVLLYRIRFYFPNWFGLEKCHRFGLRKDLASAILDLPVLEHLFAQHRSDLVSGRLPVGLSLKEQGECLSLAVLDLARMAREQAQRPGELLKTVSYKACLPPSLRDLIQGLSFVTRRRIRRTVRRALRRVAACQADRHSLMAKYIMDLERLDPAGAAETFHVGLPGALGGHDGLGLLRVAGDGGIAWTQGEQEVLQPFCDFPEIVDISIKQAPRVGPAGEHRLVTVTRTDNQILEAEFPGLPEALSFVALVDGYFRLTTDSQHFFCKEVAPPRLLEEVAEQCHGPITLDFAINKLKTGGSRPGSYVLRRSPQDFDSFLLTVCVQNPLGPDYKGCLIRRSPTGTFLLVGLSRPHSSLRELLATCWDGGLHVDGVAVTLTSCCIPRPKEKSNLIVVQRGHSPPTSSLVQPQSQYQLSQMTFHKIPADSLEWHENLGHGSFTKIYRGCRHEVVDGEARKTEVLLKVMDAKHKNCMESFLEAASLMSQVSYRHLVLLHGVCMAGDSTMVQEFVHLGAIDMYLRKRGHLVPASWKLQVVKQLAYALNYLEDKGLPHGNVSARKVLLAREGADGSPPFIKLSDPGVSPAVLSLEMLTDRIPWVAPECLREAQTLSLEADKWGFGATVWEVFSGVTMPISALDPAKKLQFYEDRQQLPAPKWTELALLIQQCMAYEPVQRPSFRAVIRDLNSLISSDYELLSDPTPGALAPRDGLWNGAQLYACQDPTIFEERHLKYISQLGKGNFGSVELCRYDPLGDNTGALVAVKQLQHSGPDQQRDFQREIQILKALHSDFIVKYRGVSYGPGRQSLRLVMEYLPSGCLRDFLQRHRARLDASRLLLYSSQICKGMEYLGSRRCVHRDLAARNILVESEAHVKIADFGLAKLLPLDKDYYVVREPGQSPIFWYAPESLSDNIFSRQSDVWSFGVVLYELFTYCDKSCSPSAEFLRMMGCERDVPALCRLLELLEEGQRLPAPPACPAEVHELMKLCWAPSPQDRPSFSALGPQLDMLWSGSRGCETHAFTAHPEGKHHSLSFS
Kind of assay: JAK3 inhibition assay (ELISA, Poly (Glu, Ala, Tyr) coated plates). As to conditions: 2 mM ATP, 60 minutes at 30° C. As to the method:
Compound inhibition of JAK3 was assayed by the method described by G. R. Brown, et al., Bioorg. Med. Chem. Lett. 2000, vol. 10, pp 575-579 in the following manner. Into Maxisorb plates, previously coated at 4° C. with Poly (Glu, Ala, Tyr) 6:3:1 then washed with phosphate buffered saline 0.05% and Tween (PBST), was added 2 mM ATP, 5 mM MgCl2, and a solution of compound in DMSO. The reaction was started with JAK enzyme and the plates incubated for 60 minutes at 30° C. The plates were then washed with PBST, […] HRP-Conjugated 4G10 antibody was added, and the plate incubated for 90 minutes at 30° C. The plate was again washed with PBST, […] TMB solution is added, and the plates were incubated for another 30 minutes at 30° C. Sulfuric acid ([…] of 1M) was added to stop the reaction and the plate is read at 450 nm to obtain the optical densities for analysis to determine IC50 values.

For assay [3], the target named is T2, c-KIT (Homo sapiens, UniProt P10721).
T2 construct: 0.02% BSA and 25 nM c-KIT
Kind of assay: Inhibition of c-KIT, radiometric filter-binding assay. As to conditions: 700 μM ATP, 0.5 mg/mL pE4Y, room temperature. As to the method: (§1) Compounds are screened for their ability to inhibit c-KIT activity using a radiometric filter-binding assay. This assay monitors the ^33P incorporation into a substrate poly(Glu, Tyr) 4:1 (pE4Y). Reactions are carried out in a solution containing 100 mM HEPES (pH 7.5), 10 mM MgCl2, 25 mM NaCl, 1 mM DTT, 0.01% BSA and 2.5% DMSO. Final substrate concentrations in the assay were 700 μM ATP and 0.5 mg/mL pE4Y (both from Sigma Chemicals, St Louis, Mo.). The final concentration of compounds is generally between 0.01 and 5 μM. Typically, a 12-point titration is conducted by preparing serial dilutions from 10 mM DMSO stock of test compound. Reactions were carried out at room temperature.
Two assay solutions are prepared. Solution 1 contains 100 mM HEPES (pH 7.5), 10 mM MgCl2, 25 mM NaCl, 1 mg/ml pE4Y and 1.4 mM ATP(containing 0.5 μCi of [γ-^33P]ATP for each reaction). Solution 2 contains 100 mM HEPES (pH 7.5), 10 mM MgCl2, 25 mM NaCl, 2 mM DTT, 0.02% BSA and 25 nM c-KIT. The assay is run on a 96 well plate by mixing 33 μL of Solution1 and 1.65 μL of the test compounds. The reaction is initiated with 33 μL of Solution2. After incubation for 20 minutes at room temperature, the reaction was stopped with 50 μL of 10% TCA containing 0.2 mM of ATP. All of the reaction volume is then transferred to a filter plate and washed with 5% TCA by a Harvester9600 from TOMTEC (Hamden, Conn.). The amount of ^33P incorporation into pE4y is analyzed by a Packard TopCount Microplate Scintillation Counter (Meriden, Conn.). The data is fitted using Prism software to get an IC50 or Ki.

Assay [4] deals with T3, FLT-3 (Homo sapiens, UniProt P36888).
T3 construct: 0.02% BSA and 3 nM FLT-3
T3 sequence (P36888 27-993): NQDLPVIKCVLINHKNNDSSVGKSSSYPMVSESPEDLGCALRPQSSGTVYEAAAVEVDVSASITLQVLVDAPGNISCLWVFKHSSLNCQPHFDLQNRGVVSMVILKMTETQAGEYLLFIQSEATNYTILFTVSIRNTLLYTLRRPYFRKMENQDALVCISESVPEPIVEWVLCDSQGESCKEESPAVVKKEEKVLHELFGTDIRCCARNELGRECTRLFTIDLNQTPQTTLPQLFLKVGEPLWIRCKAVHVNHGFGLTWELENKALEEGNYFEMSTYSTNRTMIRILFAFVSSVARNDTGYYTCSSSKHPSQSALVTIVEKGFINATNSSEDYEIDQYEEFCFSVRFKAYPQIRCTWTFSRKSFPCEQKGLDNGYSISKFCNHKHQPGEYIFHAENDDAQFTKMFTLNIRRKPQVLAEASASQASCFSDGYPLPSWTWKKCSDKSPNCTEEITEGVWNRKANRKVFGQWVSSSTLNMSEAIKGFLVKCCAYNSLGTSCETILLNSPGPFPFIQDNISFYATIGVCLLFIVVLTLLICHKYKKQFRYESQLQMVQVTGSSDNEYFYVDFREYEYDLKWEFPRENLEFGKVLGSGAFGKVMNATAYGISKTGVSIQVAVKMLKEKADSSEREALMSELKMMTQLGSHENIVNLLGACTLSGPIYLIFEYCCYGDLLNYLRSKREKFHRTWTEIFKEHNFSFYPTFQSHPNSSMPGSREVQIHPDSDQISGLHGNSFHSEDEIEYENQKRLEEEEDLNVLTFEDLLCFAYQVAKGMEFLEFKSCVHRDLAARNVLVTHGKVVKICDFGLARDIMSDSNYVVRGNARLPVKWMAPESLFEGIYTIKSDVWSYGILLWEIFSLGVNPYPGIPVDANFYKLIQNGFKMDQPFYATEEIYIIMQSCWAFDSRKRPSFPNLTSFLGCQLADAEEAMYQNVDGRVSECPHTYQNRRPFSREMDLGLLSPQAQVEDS
Kind of assay: Inhibition of FLT-3, radiometric filter-binding assay. As to conditions: 90 μM ATP, 0.5 mg/mL pE4Y, room temperature. As to the method: as §1, with “Compounds were” for “Compounds are”, “inhibit FLT-3” for “inhibit c-KIT”, “Reactions were” for “Reactions are”, “were 90” for “were 700”, “titration was” for “titration is”
Two assay solutions were prepared. Solution 1 contains 100 mM HEPES (pH 7.5), 10 mM MgCl2, 25 mM NaCl, 1 mg/ml pE4Y and 180 μM ATP(containing 0.3 μCi of [γ-^33P]ATP for each reaction). Solution 2 contains 100 mM HEPES (pH 7.5), 10 mM MgCl2, 25 mM NaCl, 2 mM DTT, 0.02% BSA and 3 nM FLT-3. The assay was run on a 96 well plate by mixing 50 μL each of Solution 1 and […] of the test compounds. The reaction was initiated with Solution2. After incubation for 20 minutes at room temperature, the reaction was stopped with 50 μL of 20% TCA containing 0.4 mM of ATP. All of the reaction volume was then transferred to a filter plate and washed with 5% TCA by a Harvester9600 from TOMTEC (Hamden, Conn.). The amount of ^33P incorporation into pE4y was analyzed by a Packard TopCount Microplate Scintillation Counter (Meriden, Conn.). The data was fitted using Prism software to get an IC50 or Ki.

Structures are written as SMILES. Bounds are passed on as bounds.

T2 sequence (P10721 26-976): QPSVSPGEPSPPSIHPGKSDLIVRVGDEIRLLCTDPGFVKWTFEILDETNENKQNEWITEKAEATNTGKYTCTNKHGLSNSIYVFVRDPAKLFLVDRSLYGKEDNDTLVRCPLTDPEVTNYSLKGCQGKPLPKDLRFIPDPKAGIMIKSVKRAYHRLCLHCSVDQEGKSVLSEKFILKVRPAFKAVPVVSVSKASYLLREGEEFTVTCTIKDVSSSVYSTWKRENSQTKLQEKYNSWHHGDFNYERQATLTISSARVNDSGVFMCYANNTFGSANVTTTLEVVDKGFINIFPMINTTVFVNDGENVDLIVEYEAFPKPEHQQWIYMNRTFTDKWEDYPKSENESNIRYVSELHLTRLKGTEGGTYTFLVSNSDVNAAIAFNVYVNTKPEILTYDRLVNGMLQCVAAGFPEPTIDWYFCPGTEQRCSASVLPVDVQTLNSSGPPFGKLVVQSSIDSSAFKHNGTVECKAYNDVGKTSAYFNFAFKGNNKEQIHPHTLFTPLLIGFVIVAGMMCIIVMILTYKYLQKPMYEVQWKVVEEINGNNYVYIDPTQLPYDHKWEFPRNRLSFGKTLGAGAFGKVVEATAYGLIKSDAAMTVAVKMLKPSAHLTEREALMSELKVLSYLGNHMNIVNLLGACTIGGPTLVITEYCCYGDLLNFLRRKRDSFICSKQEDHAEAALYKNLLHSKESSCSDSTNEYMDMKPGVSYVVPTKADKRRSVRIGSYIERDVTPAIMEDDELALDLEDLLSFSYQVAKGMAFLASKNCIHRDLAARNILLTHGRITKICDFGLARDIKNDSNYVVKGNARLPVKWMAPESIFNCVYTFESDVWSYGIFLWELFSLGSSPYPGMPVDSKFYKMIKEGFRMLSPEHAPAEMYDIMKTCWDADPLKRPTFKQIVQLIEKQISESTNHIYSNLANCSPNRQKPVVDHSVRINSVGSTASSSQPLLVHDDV
c-Met, sequence (P08581 25-1390): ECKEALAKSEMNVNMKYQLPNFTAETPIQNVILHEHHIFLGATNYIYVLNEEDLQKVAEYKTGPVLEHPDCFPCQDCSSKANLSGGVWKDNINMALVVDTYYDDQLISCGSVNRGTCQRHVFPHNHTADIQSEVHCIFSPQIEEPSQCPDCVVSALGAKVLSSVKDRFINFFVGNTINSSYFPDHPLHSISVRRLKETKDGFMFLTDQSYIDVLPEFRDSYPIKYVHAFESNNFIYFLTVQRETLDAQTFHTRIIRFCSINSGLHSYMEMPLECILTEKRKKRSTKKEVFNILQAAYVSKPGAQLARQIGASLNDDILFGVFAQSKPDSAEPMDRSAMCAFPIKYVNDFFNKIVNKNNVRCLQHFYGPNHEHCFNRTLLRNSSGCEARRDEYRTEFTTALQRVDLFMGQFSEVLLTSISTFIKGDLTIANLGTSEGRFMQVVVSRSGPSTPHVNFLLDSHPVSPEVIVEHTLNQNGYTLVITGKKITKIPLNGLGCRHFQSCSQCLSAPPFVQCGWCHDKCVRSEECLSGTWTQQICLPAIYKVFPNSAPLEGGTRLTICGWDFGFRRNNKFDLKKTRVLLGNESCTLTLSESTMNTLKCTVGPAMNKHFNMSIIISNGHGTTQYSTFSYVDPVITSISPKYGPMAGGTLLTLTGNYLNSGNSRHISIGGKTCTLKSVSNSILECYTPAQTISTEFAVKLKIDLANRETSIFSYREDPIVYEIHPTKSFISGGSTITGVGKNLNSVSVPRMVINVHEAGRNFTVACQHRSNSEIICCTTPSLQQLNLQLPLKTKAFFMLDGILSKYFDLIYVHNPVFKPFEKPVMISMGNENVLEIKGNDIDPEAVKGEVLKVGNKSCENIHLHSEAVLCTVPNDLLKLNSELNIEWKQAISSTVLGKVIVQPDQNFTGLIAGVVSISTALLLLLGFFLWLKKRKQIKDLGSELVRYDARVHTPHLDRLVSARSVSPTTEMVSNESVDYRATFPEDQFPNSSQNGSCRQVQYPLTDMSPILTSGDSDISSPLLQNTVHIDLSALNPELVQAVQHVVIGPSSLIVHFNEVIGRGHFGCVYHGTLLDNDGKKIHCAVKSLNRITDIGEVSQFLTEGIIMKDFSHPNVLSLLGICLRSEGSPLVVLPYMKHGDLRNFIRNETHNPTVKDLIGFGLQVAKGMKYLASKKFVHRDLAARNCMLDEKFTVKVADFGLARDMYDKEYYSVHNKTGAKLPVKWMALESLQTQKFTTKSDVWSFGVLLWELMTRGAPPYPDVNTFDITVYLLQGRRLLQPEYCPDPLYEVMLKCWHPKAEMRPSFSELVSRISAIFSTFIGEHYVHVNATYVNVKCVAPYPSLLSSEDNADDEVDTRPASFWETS

The Ki is the equilibrium dissociation constant of an inhibitor or competing ligand from its target. Low values mean a stronger hold on the target, high ones a looser hold on the target. For `CN1CCN(c2ccc(-c3cnc4[nH]cc(-c5nncn5-c5cccc(F)c5F)c4c3)cc2N)CC1` [Compound 129, 5-{3-[4-(2,3-Difluoro-phenyl)-4H-[1,2,4]triazol-3-yl]-1H-pyrrolo[2,3-b]pyridin-5-yl}-2-(4-methyl-piperazin-1-yl)-phenylamine], the inhibition constant (Ki) was less than 200 nM in assay [1], 200 to 1000 nM in assay [2] and less than 200 nM in assay [3].
Turning to `CN(C)Cc1cnc2[nH]cc(-c3oncc3-c3cccc(F)c3F)c2c1` [Compound 54, {3-[4-(2,3-Difluoro-phenyl)-isoxazol-5-yl]-1H-pyrrolo[2,3-b]pyridin-5-ylmethyl}-dimethyl-amine], the Ki in assay [1] and in assay [4] was 1000 to 12500 nM in each case.
In the case of `CN(C)c1ccc(-c2cnc3[nH]cc(-c4nncn4-c4cccc(F)c4F)c3c2)cc1[N+](=O)[O-]` [Compound 131, (4-{3-[4-(2,3-Difluoro-phenyl)-4H-[1,2,4]triazol-3-yl]-1H-pyrrolo[2,3-b]pyridin-5-yl}-2-nitro-phenyl)-dimethyl-amine], the inhibition constant (Ki) in assay [1] was less than 200 nM; in assay [2] it was 1000 to 12500 nM; in assay [3], less than 200 nM.
As for `Fc1cccc(-n2cnnc2-c2c[nH]c3ncc(-c4ccc(N5CCOCC5)nc4)cc23)c1F` [Compound 121, 3-[4-(2,3-Difluoro-phenyl)-4H-[1,2,4]triazol-3-yl]-5-(6-morpholin-4-yl-pyridin-3-yl)-1H-pyrrolo[2,3-b]pyridine], the Ki was less than 200 nM in assay [1], 1000 to 12500 nM in assay [2] and 200 to 1000 nM in assay [3].
As to `C[C@@H]1CN(c2ccc(-c3cnc4[nH]cc(-c5nncn5-c5cccc(F)c5F)c4c3)cn2)C[C@H](C)N1` [Compound 122, 3-[4-(2,3-Difluoro-phenyl)-4H-[1,2,4]triazol-3-yl]-5-[6-(3,5-dimethyl-piperazin-1-yl)-pyridin-3-yl]-1H-pyrrolo [2,3-b]pyridine], the Ki in assay [1] was less than 200 nM; in assay [2] it was 1000 to 12500 nM; in assay [3], 200 to 1000 nM.
